Results published in US7138361B2, “Herbicidal heterocycles” (E. I. du Pont de Nemours and Company, priority 2000, dated 2006).

Columns and labels:
Format in all cases: in vivo
[1] = test system: giant foxtail (Setaria viridis); assay: Test A postemergence, sprayed to runoff; settings: approx. eleven days
Method: (§1) Seeds of barnyardgrass (Echinochloa crus-galli), crabgrass (Digitaria spp.), giant foxtail (Setaria viridis), morning glory (Ipomoea spp.), redroot pigweed (Amaranthus retroflexus) and velvetleaf (Abutilon theophrasti) were planted into a sandy loam soil and treated preemergence by soil drench with test chemicals formulated in a non-phytotoxic solvent mixture which included a surfactant. At the same time, these crop and weed species were also treated postemergence sprayed to runoff with test chemicals formulated in the same manner. Plants ranged in height from two to eighteen cm and were in the one- to two-leaf stage for the postemergence treatment. Treated plants and untreated controls were maintained in a greenhouse for approximately eleven days, after which time all treated plants were compared to untreated controls and visually evaluated for injury. Plant response ratings, summarized in Table A, are based on a 0 to 10 scale where 0 is no effect and 10 is complete control. A dash (-) response means no test results.

[2] = test system: barnyardgrass (Echinochloa crus-galli); assay: Test A postemergence, sprayed to runoff; settings: approx. eleven days
Method: as §1

[3] = test system: redroot pigweed (Amaranthus retroflexus); assay: Test A postemergence, sprayed to runoff; settings: approx. eleven days
Method: as §1

[4] = test system: crabgrass (Digitaria spp.); assay: Test A postemergence, sprayed to runoff; settings: approx. eleven days
Method: as §1

[5] = test system: morning glory (Ipomoea spp.); assay: Test A preemergence, soil drench; settings: Morningglory, approx. eleven days
Method: as §1

[6] = test system: giant foxtail (Setaria viridis); assay: Test A preemergence, soil drench; settings: approx. eleven days
Method: as §1

[7] = test system: barnyardgrass (Echinochloa crus-galli); assay: Test A preemergence, soil drench; settings: approx. eleven days
Method: as §1

[8] = test system: redroot pigweed (Amaranthus retroflexus); assay: Test A preemergence, soil drench; settings: approx. eleven days
Method: as §1

[9] = test system: velvetleaf (Abutilon theophrasti); assay: Test A preemergence, soil drench; settings: approx. eleven days
Method: as §1

[10] = test system: crabgrass (Digitaria spp.); assay: Test A preemergence, soil drench; settings: approx. eleven days
Method: as §1

[11] = test system: johnsongrass (Sorghum halepense); assay: Test C postemergence
Outline: (§2)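 Each compound was dissolved in a non-phytotoxic solvent system containing a surfactant and sprayed either on freshly planted seeds (preemergence) or on young plants, 2 to 18 cm high (postemergence). Ratings after 12 to 14 greenhouse days ran from 0, no effect, to 100, complete control.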

[12] = test system: common ragweed (Ambrosia elatior); assay: Test C postemergence
Outline: as §2

[13] = test system: cocklebur (Xanthium strumarium); assay: Test C postemergence
Outline: as §2

[14] = test system: pigweed (Amaranthus retroflexus); assay: Test C postemergence
Outline: as §2

[15] = test system: woolly cupgrass (Eriochloa villosa); assay: Test C postemergence
Outline: as §2

soybean (Glycine max) = assay: Test C postemergence
Outline: as §2

[16] = test system: crabgrass (Digitaria sanguinalis); assay: Test C postemergence
Outline: as §2

kochia (Kochia scoparia) = assay: Test C postemergence
Outline: as §2

[17] = Rate 125 g/ha, scale 0 to 100, 0 no effect, 100 complete control

Structure (SMILES)	Plant response rating (visual injury vs untreated controls) ([1]; Rate 500 g/ha)	Plant response rating (visual injury vs untreated controls) ([1]; Rate 2000 g/ha)	Plant response rating (visual injury vs untreated controls) ([2]; Rate 500 g/ha)	Plant response rating (visual injury vs untreated controls) ([2]; Rate 2000 g/ha)	Plant response rating (visual injury vs untreated controls) ([3]; Rate 500 g/ha)	Plant response rating (visual injury vs untreated controls) ([3]; Rate 2000 g/ha)	Plant response rating (visual injury vs untreated controls) ([4]; Rate 500 g/ha)	Plant response rating (visual injury vs untreated controls) ([4]; Rate 2000 g/ha)	Plant response rating (visual injury vs untreated controls) ([5]; Rate 500 g/ha)	Plant response rating (visual injury vs untreated controls) ([5]; Rate 2000 g/ha)	Plant response rating (visual injury vs untreated controls) ([6]; Rate 500 g/ha)	Plant response rating (visual injury vs untreated controls) ([6]; Rate 2000 g/ha)	Plant response rating (visual injury vs untreated controls) ([7]; Rate 500 g/ha)	Plant response rating (visual injury vs untreated controls) ([7]; Rate 2000 g/ha)	Plant response rating (visual injury vs untreated controls) ([8]; Rate 500 g/ha)	Plant response rating (visual injury vs untreated controls) ([8]; Rate 2000 g/ha)	Plant response rating (visual injury vs untreated controls) ([9]; Rate 500 g/ha)	Plant response rating (visual injury vs untreated controls) ([9]; Rate 2000 g/ha)	Plant response rating (visual injury vs untreated controls) ([10]; Rate 500 g/ha)	Plant response rating (visual injury vs untreated controls) ([10]; Rate 2000 g/ha)	other results
CC1CCc2cn(C3CCN(c4cccc(C(F)(F)F)c4)C3=O)nc21 (stereo not shown) [Compound 11]	0	50	20	40	70	90	0	10	0	0	100	100	100	100	100	100	0	20	100	100	–
CC(C)(C)c1ccn(C2SCN(c3cccc(C(F)(F)F)c3)C2=O)n1 (stereo not shown) [Compound 1]	30	30	60	90	20	90	10	10	10	80	90	100	90	100	100	100	10	70	90	100	–
CC(C)(C)c1nn(C2CCN(c3cccc(C(F)(F)F)c3)C2=O)cc1Cl (stereo not shown) [Compound 14]	0	0	0	0	0	20	0	0	0	0	0	0	0	0	40	70	0	0	0	0	–
O=C1C(n2cccn2)CCN1c1cccc(C(F)(F)F)c1 (stereo not shown) [Compound 15]	10	10	10	10	0	0	10	10	0	0	50	100	10	10	30	100	30	100	80	100	–
O=C1C(n2cc(Cl)c(C3CC3)n2)CCN1c1cccc(C(F)(F)F)c1 (stereo not shown) [Compound 12]	0	0	0	0	0	0	0	0	0	0	0	30	0	0	0	40	0	0	0	60	–
CC1(C)CCc2cn(C3CCN(c4cccc(C(F)(F)F)c4)C3=O)nc21 (stereo not shown) [Compound 10]	10	10	20	10	20	100	10	10	0	20	90	100	100	100	100	100	20	10	90	100	–
CCC(CC)c1ccn(C2SCN(c3cccc(C(F)(F)F)c3)C2=O)n1 (stereo not shown) [Compound 21]	–	–	–	–	–	–	–	–	–	–	–	–	–	–	–	–	–	–	–	–	Plant response rating, Johnsongrass ([11]; Rate 31 g/ha, scale 0 to 100): 0; Plant response rating, Johnsongrass [11, 17]: 50; Plant response rating, Ragweed, Common ([12]; Rate 31 g/ha, scale 0 to 100): 0; Plant response rating, Ragweed, Common [12, 17]: 50; Plant response rating, Cocklebur ([13]; Rate 31 g/ha, scale 0 to 100): 20; Plant response rating, Cocklebur [13, 17]: 30; Plant response rating, Pigweed ([14]; Rate 31 g/ha, scale 0 to 100): 50; Plant response rating, Pigweed [14, 17]: 70; Plant response rating, Cupgrass, Woolly ([15]; Rate 31 g/ha, scale 0 to 100): 0; Plant response rating, Cupgrass, Woolly [15, 17]: 0; Plant response rating, Soybean (soybean (Glycine max); Rate 31 g/ha, scale 0 to 100): 0; Plant response rating, Soybean (soybean (Glycine max); [17]): 30; Plant response rating, Crabgrass ([16]; Rate 31 g/ha, scale 0 to 100): 0; Plant response rating, Crabgrass [16, 17]: 0; Plant response rating, Kochia (kochia (Kochia scoparia); Rate 31 g/ha, scale 0 to 100): 30; Plant response rating, Kochia (kochia (Kochia scoparia); [17]): 40
